Results as given in BigSolDB 2.1.

SMILES: Oc1ccc(/C=C/c2cc(O)cc(O)c2)cc1
- solubility (mole fraction) (in acetone, 273.2 K): 0.0846
- solubility (mole fraction) (in acetone, 283.2 K): 0.0858
- solubility (mole fraction) (in acetone, 293.2 K): 0.0871
- solubility (mole fraction) (in acetone, 303.2 K): 0.0877
- solubility (mole fraction) (in acetone, 313.2 K): 0.0886
- solubility (mole fraction) (in ethanol, 273.2 K): 0.0101
- solubility (mole fraction) (in ethanol, 283.2 K): 0.0127
- solubility (mole fraction) (in ethanol, 293.2 K): 0.0156
- solubility (mole fraction) (in ethanol, 303.2 K): 0.0182
- solubility (mole fraction) (in ethanol, 313.2 K): 0.0208
- solubility (mole fraction) (in ethanol, 323.2 K): 0.0236
- solubility (mole fraction) (in water, 293.2 K): 2.9e-06
- solubility (mole fraction) (in water, 303.2 K): 4.57e-06
- solubility (mole fraction) (in water, 313.2 K): 6.46e-06
- solubility (mole fraction) (in water, 323.2 K): 9.3e-06
